Assay results reported in paper PMC11233931, “Remodeling tumor‐associated macrophage for anti‐cancer effects by rational design of irreversible inhibition of mitogen‐activated protein kinase‐activated protein kinase 2” (MedComm, 2024).

Key:
Assay in all cases: Eurofins kinase selectivity profile against 380 other human recombinant kinases (Table S2)
Format in all cases: biochemical
[1] = molecular target: T1, 380 human recombinant protein kinases (Homo sapiens, UniProt O94768); conditions: DRAK2(h), read-out: Inhibition rate
T1 construct: purchased Eurofins (Celle Lévescault)
T1 sequence (O94768 1-372): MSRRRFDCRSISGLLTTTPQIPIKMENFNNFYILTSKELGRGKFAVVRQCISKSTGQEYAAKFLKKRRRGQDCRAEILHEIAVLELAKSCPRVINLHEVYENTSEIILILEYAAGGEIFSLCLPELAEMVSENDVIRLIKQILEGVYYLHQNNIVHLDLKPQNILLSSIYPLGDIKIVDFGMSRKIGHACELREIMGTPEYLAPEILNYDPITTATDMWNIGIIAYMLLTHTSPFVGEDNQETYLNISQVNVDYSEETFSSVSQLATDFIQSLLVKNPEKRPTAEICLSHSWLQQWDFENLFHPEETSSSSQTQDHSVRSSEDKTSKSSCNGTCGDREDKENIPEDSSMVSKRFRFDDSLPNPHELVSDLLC
Procedure, shortened: (§1)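 Outsourced panel: 380 human recombinant kinases; inhibitor tested at various concentrations; purpose: MK2 selectivity check.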

[2] = molecular target: T2, 380 human recombinant protein kinases (Homo sapiens, UniProt P00533); conditions: EGFR(h), read-out: Inhibition rate
T2 construct: purchased Eurofins (Celle Lévescault)
T2 sequence (P00533 25-1210): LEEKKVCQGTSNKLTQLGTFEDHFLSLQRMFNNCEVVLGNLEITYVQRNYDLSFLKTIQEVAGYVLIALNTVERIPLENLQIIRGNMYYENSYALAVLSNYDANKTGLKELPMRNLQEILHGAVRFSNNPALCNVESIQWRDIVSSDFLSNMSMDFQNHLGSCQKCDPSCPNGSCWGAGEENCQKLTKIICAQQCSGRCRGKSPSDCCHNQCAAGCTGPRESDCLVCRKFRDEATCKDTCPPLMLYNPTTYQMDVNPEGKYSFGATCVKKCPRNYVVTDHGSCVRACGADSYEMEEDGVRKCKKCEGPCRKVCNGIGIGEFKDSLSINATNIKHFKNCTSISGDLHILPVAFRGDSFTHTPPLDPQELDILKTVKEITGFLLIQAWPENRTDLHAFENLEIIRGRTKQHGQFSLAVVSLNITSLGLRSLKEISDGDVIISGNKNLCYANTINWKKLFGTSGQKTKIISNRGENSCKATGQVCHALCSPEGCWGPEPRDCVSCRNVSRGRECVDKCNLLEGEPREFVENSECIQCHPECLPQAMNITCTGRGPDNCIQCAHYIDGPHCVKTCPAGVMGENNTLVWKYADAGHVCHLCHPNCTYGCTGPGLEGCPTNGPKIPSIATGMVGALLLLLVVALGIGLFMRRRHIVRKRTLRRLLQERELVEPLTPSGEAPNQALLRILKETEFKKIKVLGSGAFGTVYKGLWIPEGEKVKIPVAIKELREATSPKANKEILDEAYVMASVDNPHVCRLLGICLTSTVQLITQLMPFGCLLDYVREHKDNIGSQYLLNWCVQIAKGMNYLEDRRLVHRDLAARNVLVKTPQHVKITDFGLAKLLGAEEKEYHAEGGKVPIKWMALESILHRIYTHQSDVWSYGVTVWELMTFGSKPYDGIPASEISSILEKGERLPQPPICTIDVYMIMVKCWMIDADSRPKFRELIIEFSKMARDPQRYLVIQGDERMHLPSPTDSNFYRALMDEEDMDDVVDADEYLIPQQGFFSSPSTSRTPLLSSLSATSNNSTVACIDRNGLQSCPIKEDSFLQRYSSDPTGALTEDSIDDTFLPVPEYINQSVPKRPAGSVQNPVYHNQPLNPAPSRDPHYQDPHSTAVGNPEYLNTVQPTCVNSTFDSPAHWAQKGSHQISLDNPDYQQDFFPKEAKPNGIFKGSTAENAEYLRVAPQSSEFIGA
Procedure, shortened: as §1

[3] = molecular target: T3, 380 human recombinant protein kinases (Homo sapiens, UniProt P08631); conditions: Hck(h), read-out: Inhibition rate
T3 construct: purchased Eurofins (Celle Lévescault)
T3 sequence (P08631 whole entry): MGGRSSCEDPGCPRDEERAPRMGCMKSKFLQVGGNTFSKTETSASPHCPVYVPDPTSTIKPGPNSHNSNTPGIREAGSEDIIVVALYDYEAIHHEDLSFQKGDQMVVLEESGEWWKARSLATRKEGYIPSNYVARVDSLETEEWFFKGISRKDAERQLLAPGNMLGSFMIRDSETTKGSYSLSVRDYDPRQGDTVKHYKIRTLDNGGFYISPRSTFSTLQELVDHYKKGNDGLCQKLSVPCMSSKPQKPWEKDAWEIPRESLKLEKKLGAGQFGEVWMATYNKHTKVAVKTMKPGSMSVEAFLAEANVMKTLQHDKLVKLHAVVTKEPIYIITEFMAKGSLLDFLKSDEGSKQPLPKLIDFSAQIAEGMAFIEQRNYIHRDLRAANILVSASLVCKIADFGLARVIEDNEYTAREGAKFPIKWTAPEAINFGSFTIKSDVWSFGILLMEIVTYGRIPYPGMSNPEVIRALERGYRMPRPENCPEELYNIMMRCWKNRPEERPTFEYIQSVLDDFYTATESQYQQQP
Procedure, shortened: as §1

[4] = molecular target: T4, 380 human recombinant protein kinases (Homo sapiens, UniProt P17612); conditions: PKA(h), read-out: Inhibition rate
T4 construct: purchased Eurofins (Celle Lévescault)
Procedure, shortened: as §1

[5] = molecular target: T5, 380 human recombinant protein kinases (Homo sapiens, UniProt P19525); conditions: PKR(h), read-out: Inhibition rate
T5 construct: purchased Eurofins (Celle Lévescault)
T5 sequence (P19525 whole entry): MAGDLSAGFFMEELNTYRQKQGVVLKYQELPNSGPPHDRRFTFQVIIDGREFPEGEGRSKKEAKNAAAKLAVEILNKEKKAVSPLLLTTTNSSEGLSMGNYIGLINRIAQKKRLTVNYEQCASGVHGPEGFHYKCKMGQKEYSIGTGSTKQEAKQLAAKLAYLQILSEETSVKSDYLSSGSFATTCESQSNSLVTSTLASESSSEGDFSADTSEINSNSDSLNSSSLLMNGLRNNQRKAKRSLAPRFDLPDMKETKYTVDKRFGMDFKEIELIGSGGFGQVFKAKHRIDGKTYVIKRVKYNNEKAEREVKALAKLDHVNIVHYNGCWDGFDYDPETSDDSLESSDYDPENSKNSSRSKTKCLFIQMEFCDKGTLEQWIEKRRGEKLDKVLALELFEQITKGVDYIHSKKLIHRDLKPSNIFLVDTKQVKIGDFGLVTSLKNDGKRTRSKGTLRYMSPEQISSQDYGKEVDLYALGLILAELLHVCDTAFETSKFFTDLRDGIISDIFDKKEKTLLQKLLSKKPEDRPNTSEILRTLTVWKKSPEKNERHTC
Procedure, shortened: as §1

[6] = molecular target: T6, 380 human recombinant protein kinases (Homo sapiens, UniProt P45984); conditions: JNK2α2(h), read-out: Inhibition rate
T6 construct: purchased Eurofins (Celle Lévescault)
T6 sequence (P45984 whole entry): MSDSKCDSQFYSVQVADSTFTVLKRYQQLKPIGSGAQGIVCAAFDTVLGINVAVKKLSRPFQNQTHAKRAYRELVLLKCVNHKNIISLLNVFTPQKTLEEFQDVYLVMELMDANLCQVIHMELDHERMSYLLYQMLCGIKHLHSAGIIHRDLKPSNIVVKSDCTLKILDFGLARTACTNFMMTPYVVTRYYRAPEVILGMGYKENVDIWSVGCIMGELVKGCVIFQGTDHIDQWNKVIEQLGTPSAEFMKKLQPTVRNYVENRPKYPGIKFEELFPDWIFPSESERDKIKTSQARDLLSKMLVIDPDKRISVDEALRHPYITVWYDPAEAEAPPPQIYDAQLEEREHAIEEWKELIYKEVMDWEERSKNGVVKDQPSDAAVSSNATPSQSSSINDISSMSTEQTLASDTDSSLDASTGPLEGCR
Procedure, shortened: as §1

[7] = molecular target: T7, 380 human recombinant protein kinases (Homo sapiens, UniProt P49674); conditions: CK1ε(h), read-out: Inhibition rate
T7 construct: purchased Eurofins (Celle Lévescault)
T7 sequence (P49674 whole entry): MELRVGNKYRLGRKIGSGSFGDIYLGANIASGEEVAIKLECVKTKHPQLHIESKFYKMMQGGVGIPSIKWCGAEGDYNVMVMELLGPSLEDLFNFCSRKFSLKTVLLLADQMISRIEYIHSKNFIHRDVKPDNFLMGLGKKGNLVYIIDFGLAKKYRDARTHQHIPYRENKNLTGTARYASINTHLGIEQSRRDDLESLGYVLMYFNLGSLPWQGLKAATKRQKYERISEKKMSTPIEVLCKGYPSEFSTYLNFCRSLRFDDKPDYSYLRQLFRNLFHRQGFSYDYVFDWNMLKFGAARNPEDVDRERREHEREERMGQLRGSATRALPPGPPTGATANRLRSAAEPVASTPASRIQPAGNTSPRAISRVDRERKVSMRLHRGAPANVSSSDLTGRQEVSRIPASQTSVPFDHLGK
Procedure, shortened: as §1

[8] = molecular target: T8, 380 human recombinant protein kinases (Homo sapiens, UniProt Q05397); conditions: FAK(h), read-out: Inhibition rate
T8 construct: purchased Eurofins (Celle Lévescault)
T8 sequence (Q05397 whole entry): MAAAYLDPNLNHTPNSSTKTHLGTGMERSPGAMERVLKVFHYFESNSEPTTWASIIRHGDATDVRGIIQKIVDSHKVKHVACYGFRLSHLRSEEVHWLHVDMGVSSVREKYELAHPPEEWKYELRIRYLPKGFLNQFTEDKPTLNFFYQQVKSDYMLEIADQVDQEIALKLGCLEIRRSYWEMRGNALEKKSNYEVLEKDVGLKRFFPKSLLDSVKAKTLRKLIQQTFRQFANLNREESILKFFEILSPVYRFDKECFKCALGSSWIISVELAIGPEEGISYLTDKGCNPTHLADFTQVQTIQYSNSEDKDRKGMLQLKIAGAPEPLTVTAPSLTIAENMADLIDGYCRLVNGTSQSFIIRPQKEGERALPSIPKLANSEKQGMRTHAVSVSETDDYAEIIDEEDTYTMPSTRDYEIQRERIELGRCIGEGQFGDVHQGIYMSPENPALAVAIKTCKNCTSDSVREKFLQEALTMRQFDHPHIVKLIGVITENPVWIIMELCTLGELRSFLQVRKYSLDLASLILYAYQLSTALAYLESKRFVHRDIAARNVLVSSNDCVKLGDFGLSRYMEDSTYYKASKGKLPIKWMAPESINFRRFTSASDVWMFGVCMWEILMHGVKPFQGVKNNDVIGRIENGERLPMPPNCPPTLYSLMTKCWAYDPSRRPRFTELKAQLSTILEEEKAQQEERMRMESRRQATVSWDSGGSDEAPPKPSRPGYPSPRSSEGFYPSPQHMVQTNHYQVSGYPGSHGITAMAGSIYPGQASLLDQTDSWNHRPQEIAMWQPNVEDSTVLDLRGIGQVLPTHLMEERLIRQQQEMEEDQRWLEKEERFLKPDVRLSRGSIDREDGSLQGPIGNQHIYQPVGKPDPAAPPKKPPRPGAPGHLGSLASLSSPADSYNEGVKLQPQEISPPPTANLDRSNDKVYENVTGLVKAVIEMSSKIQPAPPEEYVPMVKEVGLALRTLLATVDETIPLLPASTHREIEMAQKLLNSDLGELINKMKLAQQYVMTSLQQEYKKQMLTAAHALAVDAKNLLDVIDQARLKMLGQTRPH
Procedure, shortened: as §1

[9] = molecular target: T9, 380 human recombinant protein kinases (Homo sapiens, UniProt Q52WX2); conditions: SBK1(h), read-out: Inhibition rate (%)
T9 construct: purchased Eurofins (Celle Lévescault)
Procedure, shortened: as §1

[10] = molecular target: T10, 380 human recombinant protein kinases (Homo sapiens, UniProt Q8N5S9); conditions: CaMKK1(h), read-out: Inhibition rate
T10 construct: purchased Eurofins (Celle Lévescault)
T10 sequence (Q8N5S9 whole entry): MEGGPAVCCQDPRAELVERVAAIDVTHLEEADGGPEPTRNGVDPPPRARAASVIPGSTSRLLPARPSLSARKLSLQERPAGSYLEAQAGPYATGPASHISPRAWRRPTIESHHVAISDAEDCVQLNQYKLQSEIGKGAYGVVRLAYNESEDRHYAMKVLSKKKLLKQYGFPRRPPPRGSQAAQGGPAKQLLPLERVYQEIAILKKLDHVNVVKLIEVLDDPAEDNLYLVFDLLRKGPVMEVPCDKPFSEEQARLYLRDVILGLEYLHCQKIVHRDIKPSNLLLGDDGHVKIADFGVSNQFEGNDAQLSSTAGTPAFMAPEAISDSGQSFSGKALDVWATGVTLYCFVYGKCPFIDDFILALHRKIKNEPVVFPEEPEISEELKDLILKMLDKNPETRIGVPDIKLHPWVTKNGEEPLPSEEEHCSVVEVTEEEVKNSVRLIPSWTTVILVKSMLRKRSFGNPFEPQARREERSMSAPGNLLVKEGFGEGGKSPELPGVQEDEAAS
Procedure, shortened: as §1

[11] = molecular target: T11, 380 human recombinant protein kinases (Homo sapiens, UniProt Q8TDX7); conditions: NEK7(h), read-out: Inhibition rate
T11 construct: purchased Eurofins (Celle Lévescault)
T11 sequence (Q8TDX7 whole entry): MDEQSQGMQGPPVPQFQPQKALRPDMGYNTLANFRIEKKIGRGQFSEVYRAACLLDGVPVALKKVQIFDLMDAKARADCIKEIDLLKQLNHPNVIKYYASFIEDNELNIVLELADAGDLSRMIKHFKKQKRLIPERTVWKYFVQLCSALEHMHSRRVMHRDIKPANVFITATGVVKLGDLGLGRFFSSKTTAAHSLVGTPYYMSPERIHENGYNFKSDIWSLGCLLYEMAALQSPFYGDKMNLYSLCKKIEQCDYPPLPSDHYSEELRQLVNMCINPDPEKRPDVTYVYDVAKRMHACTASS
Procedure, shortened: as §1

[12] = molecular target: T12, 380 human recombinant protein kinases (Homo sapiens, UniProt Q96PF2); conditions: TSSK2(h), read-out: Inhibition rate (%)
T12 construct: purchased Eurofins (Celle Lévescault)
T12 sequence (Q96PF2 1-358): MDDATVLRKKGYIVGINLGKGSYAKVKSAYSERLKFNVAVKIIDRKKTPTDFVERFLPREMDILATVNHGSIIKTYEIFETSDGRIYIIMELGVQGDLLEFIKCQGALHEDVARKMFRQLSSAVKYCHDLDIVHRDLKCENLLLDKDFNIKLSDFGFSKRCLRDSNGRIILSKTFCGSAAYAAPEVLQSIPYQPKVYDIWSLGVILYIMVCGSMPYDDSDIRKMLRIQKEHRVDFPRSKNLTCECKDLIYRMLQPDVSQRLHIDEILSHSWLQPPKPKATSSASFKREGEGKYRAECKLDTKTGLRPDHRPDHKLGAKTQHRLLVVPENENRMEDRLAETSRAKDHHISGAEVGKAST
Procedure, shortened: as §1

[13] = molecular target: T13, 380 human recombinant protein kinases (Homo sapiens, UniProt Q9HCP0); conditions: CK1γ1(h), read-out: Inhibition rate
T13 construct: purchased Eurofins (Celle Lévescault)
Procedure, shortened: as §1

How did the inhibition at 0.01 µM ([1]; 10 nM) turn out when C=CC(=O)Nc1cc(-c2cc(-c3cc4c([nH]3)CCNC4=O)ccn2)ccc1OC(F)(F)F [compound 11] was run?
Its inhibition at 0.01 µM is 28%.

And the inhibition at 0.1 µM ([1]; 100 nM)?
Its inhibition at 0.1 µM is 80%.

What about the inhibition at 1 µM ([1]; 1000 nM) of the same molecule?
Its inhibition at 1 µM is 93%.

And the inhibition at 0.01 µM ([2]; 10 nM)?
The inhibition at 0.01 µM was 3%.

What about the inhibition at 0.1 µM ([2]; 100 nM) of the same molecule?
Its inhibition at 0.1 µM is -20%.

What about the inhibition at 1 µM ([2]; 1000 nM) of the same molecule?
Its inhibition at 1 µM is -6%.

What about the inhibition at 0.01 µM ([3]; 10 nM) of the same molecule?
Its inhibition at 0.01 µM is -3%.

And the inhibition at 0.1 µM ([3]; 100 nM)?
The inhibition at 0.1 µM was -7%.

What about the inhibition at 1 µM ([3]; 1000 nM) of the same molecule?
Its inhibition at 1 µM is 4%.

What about the inhibition at 0.01 µM ([4]; 10 nM) of the same molecule?
The inhibition at 0.01 µM was -7%.

And the inhibition at 0.1 µM ([4]; 100 nM)?
The inhibition at 0.1 µM was -7%.

What about the inhibition at 1 µM ([4]; 1000 nM) of the same molecule?
The inhibition at 1 µM was -6%.

What about the inhibition at 0.01 µM ([5]; 10 nM) of the same molecule?
Its inhibition at 0.01 µM is 3%.

And the inhibition at 0.1 µM ([5]; 100 nM)?
The inhibition at 0.1 µM was 3%.

What about the inhibition at 1 µM ([5]; 1000 nM) of the same molecule?
The inhibition at 1 µM was 9%.

And the inhibition at 0.01 µM ([6]; 10 nM)?
Its inhibition at 0.01 µM is -6%.

And the inhibition at 0.1 µM ([6]; 100 nM)?
The inhibition at 0.1 µM was 5%.

And the inhibition at 1 µM ([6]; 1000 nM)?
Its inhibition at 1 µM is 23%.

And the inhibition at 0.01 µM ([7]; 10 nM)?
The inhibition at 0.01 µM was -5%.

What about the inhibition at 0.1 µM ([7]; 100 nM) of the same molecule?
The inhibition at 0.1 µM was 4%.

And the inhibition at 1 µM ([7]; 1000 nM)?
Its inhibition at 1 µM is 34%.

And the inhibition at 0.01 µM ([8]; 10 nM)?
Its inhibition at 0.01 µM is -10%.

What about the inhibition at 0.1 µM ([8]; 100 nM) of the same molecule?
The inhibition at 0.1 µM was -1%.

And the inhibition at 1 µM ([8]; 1000 nM)?
The inhibition at 1 µM was 1%.

And the inhibition at 0.01 µM ([9]; 10 nM)?
The inhibition at 0.01 µM was -1%.

What about the inhibition at 0.1 µM ([9]; 100 nM) of the same molecule?
The inhibition at 0.1 µM was -8%.

What about the inhibition at 1 µM ([9]; 1000 nM) of the same molecule?
The inhibition at 1 µM was 3%.

What about the inhibition at 0.01 µM ([10]; 10 nM) of the same molecule?
The inhibition at 0.01 µM was -7%.

What about the inhibition at 0.1 µM ([10]; 100 nM) of the same molecule?
Its inhibition at 0.1 µM is 4%.

And the inhibition at 1 µM ([10]; 1000 nM)?
The inhibition at 1 µM was 11%.

And the inhibition at 0.01 µM ([11]; 10 nM)?
Its inhibition at 0.01 µM is -5%.

What about the inhibition at 0.1 µM ([11]; 100 nM) of the same molecule?
Its inhibition at 0.1 µM is -2%.

And the inhibition at 1 µM ([11]; 1000 nM)?
Its inhibition at 1 µM is 3%.

What about the inhibition at 0.01 µM ([12]; 10 nM) of the same molecule?
The inhibition at 0.01 µM was -7%.

And the inhibition at 0.1 µM ([12]; 100 nM)?
Its inhibition at 0.1 µM is -5%.

What about the inhibition at 1 µM ([12]; 1000 nM) of the same molecule?
The inhibition at 1 µM was -5%.

And the inhibition at 0.01 µM ([13]; 10 nM)?
Its inhibition at 0.01 µM is 0%.

What about the inhibition at 0.1 µM ([13]; 100 nM) of the same molecule?
Its inhibition at 0.1 µM is 14%.

And the inhibition at 1 µM ([13]; 1000 nM)?
The inhibition at 1 µM was 56%.
